Experimental data published in patent US11629335B2, “Methods of improving vector transduction efficiency into T lymphocytes” (CELGENE CORPORATION, priority 2014, dated 2023).

Legend:
[1] = test system: primary human T lymphocytes; assay: Lentiviral transduction efficiency of primary human T lymphocytes with CAR vector JL28.2, FACS for VEGFR2+ cells; type: cell-based; conditions: for transduced cells VEGFR2+: in presence of DD, MOI 1.8; for VEGFR2+ cells: 6 μM BX795 before and concurrently, nine hours total (Pre-treated+Concurrent); for VEGFR2 expression as compared to DD Only Control: day 3 and day 8
Method: Lentivirus encoding the vector JL28.2 (VEGFR2-CD28TM-CD28IC-P2A-GFP), which encodes a chimeric antigen receptor composed of VEGFR2 and GFP protein, was added to the activated T lymphocyte culture at a multiplicity of infection (MOI) of 1.8. Fluorescence-activated cell sorting (FACS) was used to determine the proportion of T lymphocytes expressing VEGFR2 as a marker for successfully transduced cells.
Transduced lymphocytes were then analyzed by FACS to determine the proportion of successfully transduced cells.
T lymphocytes were cultured for eight days after transduction, and VEGFR2 expression was monitored at days 3 and 8 post-transduction.
Cells were analyzed by FACS for viability.
Primary human T lymphocytes were cultured as in Section 6.3.1 and analyzed by FACS for expression of VEGFR2.

[2] = test system: primary human T lymphocytes; assay: Viability of primary human T lymphocytes after lentiviral transduction, by FACS; conditions: absence of 2-AP, JL28.2 MOI 3, 50 U/ml IL-2; without DD or PS 84%
Method: Primary human T lymphocytes were cultured in RPMI-1640 media supplemented with 10% (v/v) fetal bovine serum (FBS), and activated with anti-CD3/CD28 Dynabeads® at a Dynabead:T lymphocyte ratio of 3:1 for 24 hours. 2-Aminopurine (2-AP) was added to cultures and incubated for 90 minutes at 37 C. DEAE-dextran (DD) or protamine sulfate (PS) were added to the cultures in the presence of 50 U/ml IL-2 and JL28.2 lentiviral vector at an MOI of 3. Cells were analyzed by FACS for viability.

Nc1ncc2[nH]cnc2n1 [2-AP, 2-Aminopurine]
transduction efficiency as compared to cells not exposed to 2-AP (Control) ([1]; 2-AP 2.5 mM, 5 mM or 10 mM, pretreated 90 minutes, then 5 hours with lentivirus, in presence of DD or PS): increased transduction efficiency

O=C(NCCCNc1nc(Nc2cccc(NC(=O)N3CCCC3)c2)ncc1I)c1cccs1 [BX795]
transduced cells VEGFR2+ ([1]; 1 μM BX795 added concurrently with lentivirus for six hours): 7.63%
VEGFR2+ cells ([1]; day 3 post-transduction): 18.4%
VEGFR2+ cells ([1]; day 8 post-transduction): 10.6%
VEGFR2 expression level relative to DD Only cultures ([1]; 6 μM BX795 both before and during lentiviral transduction): roughly twice as high
VEGFR2 expression as compared to DD Only Control ([1]; 6 μM BX795 concurrently with lentiviral transduction for six hours (Concurrent)): no improvement
VEGFR2 expression as compared to DD Only Control ([1]; 6 μM BX795 for three hours before lentiviral transduction (Pre-treated)): increase
transduced cells VEGFR2+ ([1]; 10 μM BX795 added concurrently with lentivirus for six hours): 10.5%

protamine sulfate [PS]
viable cells after lentiviral transduction [2]: 84.9%
cells VEGFR2+ ([1]; transformation reagent alone, no 2-AP, JL28.2 MOI 3, without DD or PS 4.49%): 0.565%
